Values quoted from earlier work in US8927021B2, “Granulating process and thus prepared granulate” (Egis Gyogyszergyar Nyilvanosan Muekoedoe Reszventarsasag, priority 2009, dated 2015).

solubility in digestive juice (digestive juice): insoluble | solubility in organic solvents (organic solvents): soluble | solubility in water (water): insoluble
SMILES: O=C1[C@H](CC[C@H](O)c2ccc(F)cc2)[C@@H](c2ccc(O)cc2)N1c1ccc(F)cc1 [Ezetimibe, (3R,4S)-1-(4-Fluorophenyl)-3-[(3S)-3-(4-fluorophenyl)-3-hydroxypropyl]-4-(4-hydroxyphenyl)-2-azetidinone]
